# Results taken from patent US20250388604A1, “Compounds and Their Use as PDE4 Activators” (Mironid Limited, priority 2022, published 2025).
# Tested on: m-IMCD3 cells
# Assay: Inhibition of PGE2-stimulated in vitro cyst formation in m-IMCD3 cells
# Type: cell-based, mouse
# Settings: Mus musculus, mIMCD3, 144 h, 3 μM; mean cyst area, 100% for (DMSO + PGE2) and 0% for DMSO control; 6 days of culture; read-out: % Cyst area after incubation with 3 μM test compound
# Method: HEK 293 and MDCK cells (Public Health England, Cell Culture Collections) were maintained in Dulbecco's Modified Eagle's Medium (DMEM) supplemented with 10% (v/v) fetal bovine serum (FBS) (Seralab), 2 mM L-glutamine and 100 U/mL penicillin streptomycin cocktail (ThermoFisher); termed complete media. Clonal HEK 293 cell lines were maintained in complete media supplemented with 0.6 mg/ml G418 (Enzo Life Sciences). Mouse inner medullary collecting duct (m-IMCD3) cells [American Type Culture Collection (ATCC)] were maintained in media consisting of DMEM/Hams F-12 50/50 Mix (DMEM F12; Corning) supplemented with penicillin streptomycin cocktail (100 U/mL) and FBS (10% v/v) (DMEM F12-10% FBS).
# The mouse Inner Medullary Collecting Duct cell line (m-IMCD3) spontaneously forms cystic spheroids in 3D culture with a Type 1 collagen/Matrigel extracellular matrix. This process can be stimulated with agents which raise intracellular cAMP and is used as an in vitro model for the formation of cystic structures in the kidneys of patients with ADPKD.
# Rat Collagen I (Fisher Scientific) is prepared on ice by neutralising with 1M NaOH and diluting with a 2× volume of DMEM/F12+10% FBS. This is mixed 1:1.1 with ice cold Matrigel (Corning) for coating plates (coating mix), and 1:0.93 with Matrigel for cell plating (plating mix).
# The assay is conducted in the wells of a 96-well plate culture dish using a total volume of 130 μL of collagen/Matrigel/DMEM F12-10% FBS suspension in growth media for each matrix plug per individual well. Initially, 30 μL of collagen/Matrigel/DMEM F12-10% FBS (coating mix) is added into the well of a 96 well plate and the collagen is set to a gel by incubating at 37° C. for at least 15 minutes. A second layer of 100 μL collagen/Matrigel suspension (plating mix) containing m-IMCD3 cells (2.75×10^6 m-IMCD3 cells per 96-well plate) is layered over the coating mix and the collagen/Matrigel/cell mix again set to a gel by incubating at 37° C. Cell cultures are maintained at 37° C. in an atmosphere of 5% CO2, 95% air.
# Between 18 and 24 h after plating, test compound(s) as DMSO stock solutions [0.1% (v/v) final DMSO concentration] and PGE2 (100 nM final concentration) in DMEM F12-10% FBS are added in quadruplicate wells per condition. Media, together with the test compound and PGE2 are replenished after 2 or 3 days. After 6 days of culture z stack images of the wells are captured using the Nikon Eclipse Ti2-E microscope. Nikon General Analysis software is used to measure the following parameters in each well: the mean cyst area, the number of cysts, and the total cyst area.
# PDE4 long form activators inhibited in vitro cyst formation in m-IMCD3 cells. Data are shown in Table 4 as mean cyst area (%), compared to 100% for (DMSO+PGE2) and 0% for DMSO control.
row,Compound,activity at 3 µM [%]
1,"O=C(CC1CCCC1)N1Cc2sc(N3C4CCC3CNC4)nc2C(F)(F)C1 [Example 270, 1-(2-(3,8-diazabicyclo[3.2.1]octan-8-yl)-7,7-difluoro-6,7-dihydrothiazolo[5,4-c]pyridin-5(4H)-yl)-2-cyclopentylethan-1-one]",2
2,"O=C(COc1ccccc1OC(F)(F)F)N1CCc2nc(N3C4CCC3CNC4)sc2C1 [Example 164, 1-(2-(3,8-diazabicyclo[3.2.1]octan-8-yl)-6,7-dihydrothiazolo[5,4-c]pyridin-5(4H)-yl)-2-(2-(trifluoromethoxy)phenoxy)ethan-1-one]",-7
3,"O=C(c1cccc2c1OCCC2)N1CCc2nc(N3C4CCC3CNC4)sc2C1 [Example 217, (2-(3,8-diazabicyclo[3.2.1]octan-8-yl)-6,7-dihydrothiazolo[5,4-c]pyridin-5(4H)-yl)(chroman-8-yl)methanone]",-3
4,"COc1cc(F)ccc1C(=O)N1CCc2nc(N3C4CCC3CNC4)sc2C1 [Example 222, (2-(3,8-diazabicyclo[3.2.1]octan-8-yl)-6,7-dihydrothiazolo[5,4-c]pyridin-5(4H)-yl)(4-fluoro-2-methoxyphenyl)methanone]",4
5,"O=C(c1ccccc1C1CC1)N1CCc2nc(N3C4CCC3CNC4)sc2C1 [Example 220, (2-(3,8-diazabicyclo[3.2.1]octan-8-yl)-6,7-dihydrothiazolo[5,4-c]pyridin-5(4H)-yl)(2-cyclopropylphenyl)methanone]",-5
6,"O=C(c1cccc(OC(F)(F)F)c1)N1CCc2nc(N3C4CCC3CNC4)sc2C1 [Example 205, (2-(3,8-diazabicyclo[3.2.1]octan-8-yl)-6,7-dihydrothiazolo[5,4-c]pyridin-5(4H)-yl)(3-(trifluoromethoxy)phenyl)methanone]",0

# Same assay, conditions: Mus musculus, mIMCD3, 144 h, 10 μM; mean cyst area, 100% for (DMSO + PGE2) and 0% for DMSO control; 6 days of culture; read-out: % Cyst area after incubation with 10 μM test compound
row,Compound,activity at 10 µM [%]
1,"O=C(NCc1ccc(C(F)(F)F)cc1)N1CCc2nc(N3C4CCC3CNC4)sc2C1 [Example 56, 2-(3,8-diazabicyclo[3.2.1]octan-8-yl)-N-(4-(trifluoromethyl)benzyl)-6,7-dihydrothiazolo[5,4-c]pyridine-5(4H)-carboxamide]",-6
2,"CC(C)(C(=O)N1CCc2nc(N3C4CCC3CNC4)sc2C1)C1CCCC1 [Example 146, 1-(2-(3,8-diazabicyclo[3.2.1]octan-8-yl)-6,7-dihydrothiazolo[5,4-c]pyridin-5(4H)-yl)-2-cyclopentyl-2-methylpropan-1-one]",16
3,"O=C(CC12CC(C1)C2)N1CCc2nc(N3C4CCC3CNC4)sc2C1 [Example 12, 1-(2-(3,8-diazabicyclo[3.2.1]octan-8-yl)-6,7-dihydrothiazolo[5,4-c]pyridin-5(4H)-yl)-2-(bicyclo[1.1.1]pentan-1-yl)ethan-1-one]",-2
4,"O=C(C(O)c1ccc(F)cc1)N1CCc2nc(N3C4CCC3CNC4)sc2C1 (stereo not shown) [Example 132, 1-(2-(3,8-diazabicyclo[3.2.1]octan-8-yl)-6,7-dihydrothiazolo[5,4-c]pyridin-5(4H)-yl)-2-(4-fluorophenyl)-2-hydroxyethan-1-one]",-6
5,"O=C(N1CCc2nc(N3C4CCC3CNC4)sc2C1)C1(F)CCCC1 [Example 151, (2-(3,8-diazabicyclo[3.2.1]octan-8-yl)-6,7-dihydrothiazolo[5,4-c]pyridin-5(4H)-yl)(1-fluorocyclopentyl)methanone]",5
6,"O=C(N1CCc2nc(N3C4CCC3CNC4)sc2C1)C1(c2ccccc2)CC1 [Example 33, (2-(3,8-diazabicyclo[3.2.1]octan-8-yl)-6,7-dihydrothiazolo[5,4-c]pyridin-5(4H)-yl)(1-phenylcyclopropyl)methanone]",8
7,"O=C(Cc1cnccn1)N1CCc2nc(N3C4CCC3CNC4)sc2C1 [Example 136, 1-(2-(3,8-diazabicyclo[3.2.1]octan-8-yl)-6,7-dihydrothiazolo[5,4-c]pyridin-5(4H)-yl)-2-(pyrazin-2-yl)ethan-1-one]",18
